Data on four compounds can be found in patent US20100137230A1, “NEW PYRIDIN-2-ONE COMPOUNDS” (priority 2007, published 2010).

Common to all, as to assay type: cell-based
One assay relates to S. aureus (MRSA). As to the kind of experiment: MIC against panel of bacteria: S. aureus (MRSA). The protocol:
(§1) All examples were tested against a panel of Gram positive and Gram negative bacteria. […] Typical MIC ranges […] are: S. aureus (MRSA) 0.06-2 (linezolid 1-2, ciprofloxacin 0.5-32) S. aureus (MSSA) 0.06-2 (linezolid 1-2, ciprofloxacin 0.125-1) E. faecalis 0.02-1 (linezolid 0.5-2, ciprofloxacin 0.5-32) E. faecium 0.02-1 (linezolid 1-2, ciprofloxacin 0.25-32) S. pneumoniae 0.02-1 (linezolid 0.125-1, ciprofloxacin 1-4) However, cleavage of saccharide modified compounds such as compounds from example 1 and 2 by esterases and glucosidases that occur in human plasma yields the corresponding antibiotically active compounds.

A further assay has as its system E. faecalis. Briefly: MIC against panel of bacteria: E. faecalis. The protocol:
as §1

The subject of another assay is S. pneumoniae. As to the kind of experiment: MIC against panel of bacteria: S. pneumoniae. As to the method: as §1
The subject of assay [1] is panel of Gram positive and Gram negative bacteria. As to the kind of experiment: in vitro screens against a panel of Gram positive and Gram negative bacteria. As to the method:
as §1

In a further assay the test system is S. aureus (MSSA). Briefly: MIC against panel of bacteria: S. aureus (MSSA). As to the method: as §1
A further assay has as its system E. faecium. Briefly: MIC against panel of bacteria: E. faecium. The protocol: as §1

As to `CC(=O)NC[C@H]1CN(c2ccc(N3CCOCC3)c(F)c2)C(=O)O1` [linezolid], the figures for the Typical MIC ranges in the assay with S. aureus (MRSA), in the assay on E. faecalis and in the assay with S. pneumoniae were 1 to 2 µg/mL, 0.5 to 2 µg/mL and 125 to 1000 µg/mL, respectively.
Consider `CC(=O)NC[C@H]1CN(c2ccc(OCC3(OC(=O)[C@H]4O[C@@H](O)[C@H](O)[C@@H](O)[C@@H]4O)CCN(c4c(F)cn5c(=O)c(C(=O)O)cc(C6CC6)c5c4C)CC3)c(F)c2)C(=O)O1` [Example 1, 8-[4-{4-[(S)-5-(Acetylamino-methyl)-2-oxo-oxazolidin-3-yl]-2-fluoro-phenoxymethyl}-4-((2S,3S,4S,5R,6R)-3,4,5,6-tetrahydroxy-tetrahydro-pyran-2-carbonyloxy)-piperidin-1-yl]-1-cyclopropyl-7-fluoro-9-methyl-4-oxo-4H-quinolizine-3-carboxylic acid], for which, in assay [1], the “activity in the in vitro screens” value is “inactive”.
With `O=C(O)c1cn(C2CC2)c2cc(N3CCNCC3)c(F)cc2c1=O` [ciprofloxacin], the Typical MIC ranges is 0.5 to 32 µg/mL with S. aureus (MRSA); 0.125 to 1 µg/mL in the assay with S. aureus (MSSA); 0.5 to 32 µg/mL in the assay with E. faecalis; 0.25 to 32 µg/mL with E. faecium; 1 to 4 µg/mL in the assay with S. pneumoniae.
For the compound `CC(=O)NC[C@H]1CN(c2ccc(OCC3(OC(=O)[C@H](O)[C@@H](O)[C@H](O)[C@H](O)CO)CCN(c4c(F)cn5c(=O)c(C(=O)O)cc(C6CC6)c5c4C)CC3)c(F)c2)C(=O)O1` [Example 2, 8-[4-{4-[(S)-5-(Acetylamino-methyl)-2-oxo-oxazolidin-3-yl]-2-fluoro-phenoxymethyl}-4-((2R,3S,4R,5R)-2,3,4,5,6-pentahydroxy-hexanoyloxy)-piperidin-1-yl]-1-cyclopropyl-7-fluoro-9-methyl-4-oxo-4H-quinolizine-3-carboxylic acid], in assay [1], the “activity in the in vitro screens” value was “inactive”.
